# Several values for one entry are separate records, joined by “and”; a condition that tells them apart may be missing. Equal values may be shown once. Read-outs that look alike come from different tables or passages of the source.
# Assays:
# HL60 cells [1] = test: Western blot of PARP and caspase 3 cleavage; assay type: cell-based, human; settings: protected from light and irradiated
# Method: Given the different cellular localization properties and time profiles for cell death induced by 9 and 10, the mechanism of cell death was investigated. Indicators of apoptotic cell death (activation of PARP and caspase 3 through proteolysis) were determined in HL60 cells treated with either 9 or 10 (FIGS. 15A and 15B).
# The generation of an alternate 55 kDa PARP fragment was determined by immunoblot as a marker for necrosis with 10% (v/v) ethanol used as a control that induces necrosis.
# [2] = Light and dark cytotoxicity of exemplary compounds (Table 6); assay type: cell-based; settings: for IC50: cell line not stated; for Phototoxicity Index: dark IC50/light IC50
# Text: This Example describes additional specific embodiments the presently-disclosed subject matter. […] The methods for making and characterizing the compounds are based on the methodologies described in the previous examples.
# A549 tumor spheroids = test: A549 tumor spheroid cytotoxicity; assay type: cell-based; settings: for MCR Index: ratio of spheroid and monolayer culture IC50
# Method: A549 cells were seeded at 2,500 cells/well in 1.5% agarose coated 96-well plates. After 7 days the spheroids were dosed with compounds and incubated for 12 hrs. […] Cellular viability was determined 72 hours after light activation for the irradiated samples and at the same time point for the dark samples by measuring ATP concentration with CellTiter Glo (Promega). Data were fit to an equation for sigmoidal dose response shown above using the Prism software package.
# 3D tumor spheroids were used to test the compounds. Spheroids provide a system that approximates the complexity of in vivo tumors. These spheroids mimic the pathophysiology of tumors, including hypoxic/necrotic regions, changes in cell shape, high proportions of quiescent cells, alterations in gene expression profiles, and diminished permeability to drugs. […] To characterize the light-activated ruthenium compounds under more challenging and biologically relevant conditions, efficacy was assessed in a 3D tumor model by forming tumor spheroids with A549 cells.
# Spheroids of about 600 μm in diameter were dosed with compounds and then either kept in the dark or irradiated with >450 nm light for 3 minutes.
# [3] = system: HL60 promyelocytic leukemia cell line; test: Cell survival assay, HL60; assay type: cell-based; settings: for Phototoxicity Index, PI HL60: ratio of dark and light IC50
# Method: (§1) The HL60 promyelocytic leukemia cell line was obtained from ATCC and cultured in IMDM media (Invitrogen; Carlsbad, Calif.) supplemented with 10% serum supreme (Lonza; Basel, Switzerland) and penicillin/streptomycin at 37° C. with 5% CO2. The A549 cell line was donated and cultured in DMEM supplemented with glutamax, 10% serum supreme, and penicillin/streptomycin at 37° C. with 5% CO2. Cells were plated in Optimem (Life Technologies; Carlsbad, Calif.) supplemented with 1% serum supreme and penicillin/streptomycin at 30,000 cells per well in Costar 96 well flat bottom clear tissue culture treated plates for HL60 and 1500 cells/well for A549. […] The cells were then incubated for 72 hours followed by the addition of Cell Titer Glo (Promega; Madison, Wis.) to determine viability. Dark controls were run in parallel. The resulting luminescence was measured using the SpectraFluor Plus Plate Reader (Tecan). Data were fit to an equation for a sigmoidal dose response using the equation below, where yi and yf are the initial and final signal intensities.
# (§2) Cell cytotoxicity studies were performed in HL60 leukemia cells and A549 lung cancer cells (see FIG. 7 and Table 3). Cells were incubated with compounds for 12 hours in the dark before irradiated with >450 nm light (410 W) for 3 minutes. Dark controls were run in parallel. Cell survival was quantified 72 hours later through the use of an ATP luciferase assay, and confirmed by Trypan Blue staining and manual counting.
# A549 lung cancer cells = test: Cell survival assay, A549 monolayer; assay type: cell-based; settings: for Phototoxicity Index, PI A549: ratio of dark and light IC50
# Method: as §1, §2
# [4] = system: HL60 leukemia cells and A549 lung cancer cells; test: Cell cytotoxicity studies, summary over HL60 and A549; assay type: cell-based; settings: for activity light versus dark: >450 nm light 3 minutes vs dark
# Method: as §1, §2
# pUC19 plasmid [5] = test: Plasmid-compound gel analysis (Example 2); settings: visible light 200 W, 1 hour
# Method: Plasmid-compound gel analysis: Plasmid pUC19 was obtained from Bio-Rad (Hercules, Calif.), transformed into DH5a cells and positive transformants were selected by colony formation on Ampicillin LB-Agar plates. Colonies were grown in LB and plasmid isolated using a Maxi-prep plasmid isolation kit (Qiagen; Velno, Netherlands). Plasmid amounts were quantified by UV/VIS. For dosing studies, 40 μg/ml of plasmid was incubated with compound dosed from 0 to 500 μM in 96 well plates. They were incubated for 30 min prior to light activation for 1 hour using a Dell 1410x 200 W projector fitted with a >450 nm cut-off filter. Dark controls were performed by keeping the DNA:compound mixtures in the dark. The samples were incubated overnight after light activation before gel analysis; the dark samples were also incubated for the same time period. Linear plasmid and relaxed circle plasmid were generated and run side-by-side with compound treated samples. Linear plasmid was generated using the EcoRI restriction enzyme (New England BioLabs; Ipswich, Mass.) following the manufacturers protocol. Single cut, relaxed circle, plasmid was generated using the copper phenanthroline reaction. Reaction was carried out in 10 mM phosphate buffer pH 7.5, with 40 μg/ml plasmid, 1 mM DTT, 1 mM hydrogen peroxide, and 5 μM copper phenanthroline for 30 min at 25° C. The addition of DTT reduced the copper phenanthroline to the +1 charge state, followed by reaction with peroxide created the damage to the DNA. Samples were resolved on a 1% non-EB (ethidium bromide) agarose gel followed by 40 minutes of staining with 0.5 μg/ml EB in Tris-Acetate buffer followed by 40 minutes of destaining in Tris-Acetate before imaging.
# [6] = Interaction of prodrug compounds with GSH by UV/Vis spectroscopy; assay type: physicochemical; settings: period of days
# Text: (§3) The photoactivated DNA crosslinking Ru(bpy)2 species retained its ability to damage DNA, even at higher GSH concentrations.
# HL60 cells [7] = test: Genomic DNA laddering by gel electrophoresis; assay type: cell-based, human; settings: dark / not irradiated
# Text: To further analyze the mechanisms of cell death induced by 9 and 10, the degradation pattern of genomic DNA was investigated. DNA laddering was observed as a result of DNA fragmentation stemming from the execution phase of apoptosis. In contrast, necrotic cell death lacked this characteristic laddering effect, allowing differentiation between these two mechanisms. […] This laddering was absent in the cells treated with ethanol and compounds 9 and 10 in the dark. […] In contrast, given the cytotoxicity of 9 in the dark and the presence of the 55 kDa PARP fragment, it appears that necrotic cell death is one pathway for […]. For compound 10 the absence of DNA laddering may be a result of the lack of cytotoxicity of the negatively charged compound.
# pUC19 plasmid [8] = test: Glutathione assay: pUC19 crosslinking with increasing GSH; assay type: biochemical; settings: 30 μM compound, 0.01-40 mM GSH; 4 light-activated
# Method: The concentrations of GSH were 0.01, 0.1, 1, 10, 40 mM, giving a molar ratio between the compounds and glutathione of a) 1:0.3, b) 1:3.3, c) 1:33, d) 1:333, e) 1:1333. […] Control reactions with pUC19 in the presence and absence of GSH were carried out for 12 hrs in the dark with 25 μg/ml plasmid and 40 mM GSH in 10 mM phosphate buffer, pH 7.5. The plasmid was resolved on a 1% agarose gel as described above.
# as §3
# [9] = system: HL-60 human leukemia cell line; test: Cytotoxicity in HL-60 cells, dark and irradiated (Example 1); assay type: cell-based
# Method: Cytotoxicity studies were performed to determine if the light-induced DNA damage translated to biological activity in cancer cells. […] The compounds were incubated with the cells for 12 hours prior to irradiation with blue (>400 nm), red (>600 nm), and near-IR (>650 nm) light (Table 2). […] Increasing the light dose increased the observed potency. […] A phototoxicity index (PI) value (the toxicity in the dark vs. the light) of 43 was found with blue light for compound 1.
# [10] = 3 min >450 nm light, 72 hours, read-out: Light IC50 A549 spheroid
# [11] = dark, read-out: Dark IC50 A549 spheroid
# [12] = 3 min >450 nm light, 72 hours, read-out: Light IC50 HL60
# [13] = 3 min >450 nm light, 72 hours, read-out: Light IC50 A549
compound,measurement,setting,value
"COc1cccc2c1C(=O)c1c(O)c3c(c(O)c1C2=O)C[C@@](O)(C(=O)CO)C[C@@H]3O[C@H]1C[C@H](N)[C@H](O)[C@H](C)O1 [doxorubicin, reference compound]",55 kDa PARP fragment (marker for necrosis),HL60 cells [1],also produced this cleavage product
Cc1ccc2ccc3ccc(C)nc3c2n1.Cc1ccc2ccc3ccc(C)nc3c2n1.[Ru+2].c1cnc2c(c1)c1nccnc1c1cccnc12 [Ru(dmphen)2dpq],IC50,[2]; read-out: Dark IC50,250 µM
same,IC50,[2]; read-out: Light IC50,0.22 µM
same,Phototoxicity Index,[2],"1,130"
"Cl.NCC(=O)CCC(=O)O [ALA, 5-aminolevulinic acid hydrochloride, reference compound]",Light IC50 A549 spheroid,"A549 tumor spheroids; 3 min >450 nm light, 72 hours",had no effect
same,IC50,"A549 tumor spheroids; Homo sapiens, A549, 3 min >450 nm light, 72 hours, read-out: Light IC50 A549 spheroid",> 300 µM
same,IC50,"A549 tumor spheroids; Homo sapiens, A549, read-out: Dark IC50 A549 spheroid",> 300 µM
same,MCR Index,A549 tumor spheroids,>14
same,IC50,"[3]; Homo sapiens, HL-60, 3 min >450 nm light, 72 hours, read-out: Light IC50 HL60",16.2 µM
same,IC50,"[3]; Homo sapiens, HL-60, read-out: Dark IC50 HL60",> 300 µM
same,"Phototoxicity Index, PI HL60",[3],>18
same,IC50,"A549 lung cancer cells; Homo sapiens, A549, 3 min >450 nm light, 72 hours, read-out: Light IC50 A549",21 µM
same,IC50,"A549 lung cancer cells; Homo sapiens, A549, read-out: Dark IC50 A549",87.8 µM
same,"Phototoxicity Index, PI A549",A549 lung cancer cells,4.2
Cc1cc(-c2ccccc2)c2ccc3c(-c4ccccc4)cc(C)nc3c2n1.[Ru+2].c1ccc(-c2ccccn2)nc1.c1ccc(-c2ccccn2)nc1 [Ru(bpy)2bathocuprione],IC50,[2]; read-out: Dark IC50,27 µM
same,IC50,[2]; read-out: Light IC50,3.3 µM
same,Phototoxicity Index,[2],8.18
Cc1ccc2ccc3ccc(C)nc3c2n1.Cc1ccc2ccc3ccc(C)nc3c2n1.[Ru+2].c1ccc2nc3c4cccnc4c4ncccc4c3nc2c1 [Ru(dmphen)2dppz],IC50,[2]; read-out: Dark IC50,150 µM
same,IC50,[2]; read-out: Light IC50,0.5 µM
same,Phototoxicity Index,[2],300
Cc1ccc2ccc3ccc(C)nc3c2n1.Cc1ccc2ccc3ccc(C)nc3c2n1.[Ru+2].c1cnc2c(c1)ccc1cccnc12 [Ru(dmphen)2phen],IC50,[2]; read-out: Dark IC50,35 µM
same,IC50,[2]; read-out: Light IC50,0.14 µM
same,Phototoxicity Index,[2],250
"Cc1ccc2c3nccnc3c3ccc(C)nc3c2n1.F[P-](F)(F)(F)(F)F.F[P-](F)(F)(F)(F)F.[Ru+2].c1ccc(-c2ccccn2)nc1.c1ccc(-c2ccccn2)nc1 [Compound 5, Ru(bpy)2dmdpq]",activity light versus dark,[4],light-triggered toxicity
same,IC50 values after irradiation,[4]; after irradiation,single μM IC50 values
same,IC50,[4]; dark,> 100 µM
same,IC50,A549 tumor spheroids; [10],64 µM and 64.6 µM
same,IC50,A549 tumor spheroids; [11],> 300 µM
same,MCR Index,A549 tumor spheroids,54
same,type of DNA damage upon visible light,pUC19 plasmid [5],combination of these two mechanisms
same,IC50,[3]; [12],2.6 µM
same,IC50,"[3]; dark, read-out: Dark IC50 HL60",108 µM
same,"Phototoxicity Index, PI HL60",[3],216
same,IC50,A549 lung cancer cells; [13],1.2 µM
same,IC50,"A549 lung cancer cells; dark, read-out: Dark IC50 A549",250 µM
same,"Phototoxicity Index, PI A549",A549 lung cancer cells,208
same,IC50,[2]; read-out: Dark IC50,250 µM
same,IC50,[2]; read-out: Light IC50,0.6 µM
same,Phototoxicity Index,[2],400
same,interaction with GSH,[6],did not interact with GSH
"N.N.[Cl][Pt][Cl] [Cisplatin, reference compound]",activity light versus dark,[4],same activity under light and dark conditions
same,IC50,A549 tumor spheroids; [11],42 µM
same,IC50,[3]; [12],3.1 µM
same,IC50,"[3]; dark, read-out: Dark IC50 HL60",3.1 µM
same,genomic DNA laddering,HL60 cells [7],initiated DNA fragmentation resulting in a laddering pattern
same,55 kDa PARP fragment (marker for necrosis),HL60 cells [1],also produced this cleavage product
same,IC50,A549 lung cancer cells; [13],3.4 µM
same,IC50,"A549 lung cancer cells; dark, read-out: Dark IC50 A549",3.5 µM
same,plasmid DNA crosslinking in presence of increasing GSH,pUC19 plasmid [8],reduced crosslinking efficacy
same,IC50,[2]; read-out: Dark IC50,3.1 µM
same,IC50,[2]; read-out: Light IC50,3.1 µM
same,IC50,"[9]; HL-60, dark, read-out: IC50 Dark",3.1 µM
same,IC50,"[9]; HL-60, light condition not given, read-out: IC50",3.1 µM
same,IC50,"[9]; read-out: IC50 Blue (3 min), HL-60, 12 hours incubation, blue (>400 nm) light 3 min",3.1 µM
Cc1ccc2ccc3ccc(C)nc3c2n1.[Ru+2].c1ccc(-c2ccccn2)nc1.c1ccc(-c2ccccn2)nc1 [Ru(bpy)2dmphen],IC50,[2]; read-out: Dark IC50,8 µM
same,IC50,[2]; read-out: Light IC50,0.4 µM
same,Phototoxicity Index,[2],20
Cc1ccc2ccc3ccc(C)nc3c2n1.Cc1ccc2ccc3ccc(C)nc3c2n1.[Ru+2].c1ccc(-c2ccnc3c2ccc2c(-c4ccccc4)ccnc23)cc1 [Ru(dmphen)2bathophen],IC50,[2]; read-out: Dark IC50,4.5 µM
same,IC50,[2]; read-out: Light IC50,1.7 µM
same,Phototoxicity Index,[2],2.5
"[Ru+2].c1ccc(-c2ccccn2)nc1.c1ccc(-c2ccccn2)nc1.c1cnc2c(c1)ccc1cccnc12 [Compound 3, Ru(bpy)2phen]",IC50,A549 tumor spheroids; [10],> 300 µM
same,IC50,A549 tumor spheroids; [11],> 300 µM
same,MCR Index,A549 tumor spheroids,>7.5
same,type of DNA damage upon visible light,pUC19 plasmid [5],DNA photocleavage
same,IC50,[3]; [12],81 µM
same,IC50,"[3]; dark, read-out: Dark IC50 HL60",240 µM
same,"Phototoxicity Index, PI HL60",[3],3
same,IC50,A549 lung cancer cells; [13],40 µM
same,IC50,"A549 lung cancer cells; dark, read-out: Dark IC50 A549",250 µM
same,"Phototoxicity Index, PI A549",A549 lung cancer cells,6.3
Cc1ccc2ccc3ccc(C)nc3c2n1.Cc1ccc2ccc3ccc(C)nc3c2n1.[Ru+2].c1ccc(-c2ccccn2)nc1 [Ru(dmphen)2bpy],IC50,[2]; read-out: Dark IC50,150 µM
same,IC50,[2]; read-out: Light IC50,1.2 µM
same,Phototoxicity Index,[2],125
